A short description of data set [1]: Molar enthalpy of transition or fusion. Conditions: Crystal; DSC.
For data set [2] the following is noted: Crystal; DTA.

Numbers after ± are expanded uncertainties.

As to `c1ccc(-c2ccncc2)nc1` [2,4'-bipyridine], the “Molar enthalpy of transition or fusion” value in data set [1] was found to be 4.16 ± 0.215 kcal/mol. Further, in data set [2], the Normal melting temperature turned out to be 59.7 ± 0.5 °C.
With `c1ccc(-c2ccncn2)cc1` [4-phenylpyrimidine], in data set [1], the “Molar enthalpy of transition or fusion” value turned out to be 4.49 ± 0.167 kcal/mol. In addition, the Normal melting temperature in data set [2] was determined as 61.0 ± 0.5 °C.
The corresponding values for `c1cnc2ccc3ncccc3c2c1` [4,7-phenanthroline] are 5.21 ± 0.263 kcal/mol and 172.4 ± 0.5 °C.
In the case of `c1cnc2c(c1)ccc1ncccc12` [1,5-diazaphenanthrene], in data set [1], the “Molar enthalpy of transition or fusion” value is 4.35 ± 0.167 kcal/mol. In addition, the Normal melting temperature in data set [2] is 77.2 ± 0.5 °C.
`c1cc(-c2ccncc2)ccn1` [γ,γ'-bipyridyl]: the “Molar enthalpy of transition or fusion” value in data set [1] is 3.85 ± 0.478 kcal/mol. Besides, the Normal melting temperature in data set [2] stood at 104.4 ± 0.5 °C.

The values above are taken from the NIST ThermoML archive (doi:10.1021/je900034d).
